Reference: patent US8044048B2, “Derivatives of sulindac, use thereof and preparation thereof” (Southern Research Institute, priority 2006, dated 2011)
Like-named read-outs stand apart in the source and are kept apart here.

Tests used:
[1] = test system: human HT29 colon tumor cell line; experiment: Growth inhibitory activity / in vitro cytotoxicity against human HT29 colon tumor cells
Description: These toxicities include gastrointestinal, renal and hematological disturbances which results from COX-1 inhibition as well as cardiovascular toxicity which likely results from COX-2 inhibition.

[2] = Toxicity in mice, maximum tolerated dose; type: in vivo
Description: FIGS. 5A and 5B show the reduced toxicity of SRI 21009 in mice relative to sulindac. Following a once a day dosing schedule, the maximum tolerated dose of sulindac is estimated to be 50 mg/kg in comparison to 300 mg/kg for SRI 21009.

[3] = test system: tumor cells; experiment: Cytostatic and cytotoxic activity; type: cell-based; conditions: FIGS. 3A and 3B, compared with sulindac sulfide
Description: Cytotoxic activity is defined as the ability the treatment to reduce cell number below the number when treatment was initiated and is an indicator of chemotherapeutic efficacy. Cytostasis is defined as the ability of the treatment to reduce cell number relative to untreated cells and is an indicator of chemopreventive efficacy.

[4] = target: T1, COX-2 (Homo sapiens, UniProt P35354); experiment: COX-2 inhibitory activity; type: biochemical
T1 sequence (P35354 18-604): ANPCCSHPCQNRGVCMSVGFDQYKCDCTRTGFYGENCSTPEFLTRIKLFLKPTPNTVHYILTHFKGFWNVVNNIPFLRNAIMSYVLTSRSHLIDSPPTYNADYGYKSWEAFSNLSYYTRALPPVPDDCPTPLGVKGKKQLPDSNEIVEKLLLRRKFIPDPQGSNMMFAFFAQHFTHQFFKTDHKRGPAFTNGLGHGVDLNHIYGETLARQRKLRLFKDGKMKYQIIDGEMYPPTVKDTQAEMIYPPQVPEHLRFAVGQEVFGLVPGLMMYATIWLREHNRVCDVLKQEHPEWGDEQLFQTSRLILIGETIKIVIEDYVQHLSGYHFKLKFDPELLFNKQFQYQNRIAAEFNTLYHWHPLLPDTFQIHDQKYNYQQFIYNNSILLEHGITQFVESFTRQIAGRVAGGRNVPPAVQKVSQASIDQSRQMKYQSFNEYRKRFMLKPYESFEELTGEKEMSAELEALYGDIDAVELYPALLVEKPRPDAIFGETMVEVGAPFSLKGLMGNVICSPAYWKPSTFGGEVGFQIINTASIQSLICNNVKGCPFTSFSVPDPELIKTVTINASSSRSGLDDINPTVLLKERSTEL

[5] = Oral bioavailability, plasma levels after oral administration; type: in vivo
[6] = target: COX-1 (Homo sapiens, UniProt P23219); experiment: COX-1 inhibitory activity; type: biochemical
[7] = test system: panel of histologically diverse tumor cell types; experiment: Growth inhibitory activity against a panel of tumor cell types; type: cell-based; conditions: FIG. 2
[8] = test system: human colon HT29 colon tumor cells; experiment: Antitumor activity in athymic nude mice implanted with HT29 tumor cells; type: in vivo; conditions: 300 mg/kg, once a day dosing schedule, HT29 xenograft
[9] = read-out: IC50, growth inhibitory activity, human HT29 colon tumor cell line, Table B lower part
[10] = Homo sapiens, HT-29, read-out: IC50 value, growth inhibitory activity
[11] = Homo sapiens, HT-29, read-out: cytotoxity IC50 values (50% inhibitory concentration)
[12] = read-out: IC50 value, growth inhibitory activity, human HT29 colon tumor cell line, Table B upper part

Sequence of COX-1 (P23219 24-599): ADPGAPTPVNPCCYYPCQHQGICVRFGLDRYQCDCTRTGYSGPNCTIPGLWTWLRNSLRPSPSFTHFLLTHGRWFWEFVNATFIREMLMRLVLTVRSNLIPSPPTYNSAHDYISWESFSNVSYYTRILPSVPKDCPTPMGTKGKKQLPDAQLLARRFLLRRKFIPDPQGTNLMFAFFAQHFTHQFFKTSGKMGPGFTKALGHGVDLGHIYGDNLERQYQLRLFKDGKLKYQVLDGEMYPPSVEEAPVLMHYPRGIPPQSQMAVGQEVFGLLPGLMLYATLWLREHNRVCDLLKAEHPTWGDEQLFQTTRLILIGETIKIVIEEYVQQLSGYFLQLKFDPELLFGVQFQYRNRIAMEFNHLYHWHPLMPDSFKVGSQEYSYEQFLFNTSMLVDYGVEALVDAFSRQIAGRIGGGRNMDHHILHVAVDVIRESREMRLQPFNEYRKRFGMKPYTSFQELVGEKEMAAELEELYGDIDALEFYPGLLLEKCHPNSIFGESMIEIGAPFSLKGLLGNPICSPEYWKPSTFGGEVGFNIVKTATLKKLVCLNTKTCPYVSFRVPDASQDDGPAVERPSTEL

**Q.** With CC1=C(CC(=O)N2CCN(C)CC2)c2cc(F)ccc2C1=Cc1ccc([S+](C)[O-])cc1 (centres unmarked) [SRI 21387, Ethanone, 2-[5-fluoro-2-methyl-1-[[4-(methylsulfinyl)phenyl]methylene]-1H-inden-3-yl]-1-(4-methylpiperazinyl)] as the compound, how does the IC50 [1, 9] read?
**A.** 71 µM

**Q.** For CSc1ccc(/C=C2/C(C)=C(CC(=O)O)c3cc(F)ccc32)cc1 [Sulindac sulfide, reference compound], which IC50 [1, 10] is on record?
**A.** 45.2 µM

**Q.** What about the IC50 [1, 11] of the same compound?
**A.** 71.2 µM

**Q.** Which “solubility during the bioassay” value [1] does the source give for CSc1ccc(/C=C2/C(C)=C(CC(=O)Nc3ccc(N(C)C)cc3)c3cc(F)ccc32)cc1 [SRI 21623, N-[[4-(Dimethylamino)phenyl]-(Z)-5-fluoro-2-methyl-3-[[4-(methylthio)phenyl]methylene]]-1H-indene-3-acetamide] here?
**A.** solubility issues during the bioassay

**Q.** And the IC50 [1, 9]?
**A.** > 100 µM

**Q.** For “N,2-Dimethyl-N-[2-(dimethylamino)ethyl]-5-fluoro-1-[[4-ethylsulfinyl)phenyl]methylene]-1H-indene-3-acetamide [SRI 21179]”, which IC50 [1, 12] is on record?
**A.** 19.8 µM

**Q.** With CSc1ccc(/C=C2/C(C)=C(CC(=O)NCc3ccc(N(C)C)cc3)c3cc(F)ccc32)cc1 [SRI 21540, N-[[4-(Dimethylamino)phenyl]methyl]-(Z)-5-fluoro-2-methyl-3-[[4-(methylthio)phenyl]methylene]-1H-indene-3-acetamide] as the compound, how does the IC50 [1, 9] read?
**A.** 3.22 µM

**Q.** With CC1=C(CC(=O)NCCN(C)C)c2cc(F)ccc2/C1=C\c1ccc(S(C)(=O)=O)cc1 [SRI 21487] as the compound, how does the IC50 [1, 9] read?
**A.** 10 µM

**Q.** For CNCCN(C)C(=O)CC1=C(C)/C(=C/c2ccc(SC)cc2)c2ccc(F)cc21 [SRI 21596], which IC50 [1, 9] is on record?
**A.** 1.62 µM

**Q.** Which IC50 [1, 9] does the source give for CC1=C(CC(=O)Nc2ccc(N(C)C)cc2)c2cc(F)ccc2/C1=C\c1ccc([S+](C)[O-])cc1 (centres unmarked) [SRI 21590, N-[[4-(Dimethylamino)phenyl]-(Z)-5-fluoro-2-methyl-3-[[4-(methylsulfinyl)phenyl]methylene]]-1H-indene-3-acetamide] here?
**A.** 230 µM

**Q.** Which IC50 [1, 10] does the source give for CC1=C(CC(=O)NCC2CCCN2C)c2cc(F)ccc2C1=Cc1ccc([S+](C)[O-])cc1 (centres unmarked) [SRI 21008, 5-Fluoro-2-methyl-N-[(1-methyl-2-pyrrolidinyl)methyl]-1-[[4-(methylsulfinyl)phenyl]methylene]-1H-indene-3-acetamide] here?
**A.** 18.7 µM

**Q.** With CC1=C(CC(=O)NCCN)c2cc(F)ccc2C1=Cc1ccc([S+](C)[O-])cc1 (centres unmarked) [SRI 21185, N-(2-Aminoethyl)-5-fluoro-2-methyl-1-[[4-(methylsulfinyl)phenyl]methylene]-1H-indene-3-acetamide] as the compound, how does the IC50 [1, 10] read?
**A.** 85.2 µM

**Q.** With CC1=C(CC(=O)NCCN2CCOCC2)c2cc(F)ccc2C1=Cc1ccc([S+](C)[O-])cc1 (centres unmarked) [SRI 21178, 5-Fluoro-2-methyl-1-[[4-(methylsulfinyl)phenyl]methylene]-N-[2-(4-morpholinyl)ethyl]-1H-indene-3-acetamide] as the compound, how does the IC50 [1, 10] read?
**A.** 114 µM

**Q.** Which results are given for CC1=C(CC(=O)O)c2cc(F)ccc2/C1=C\c1ccc([S+](C)[O-])cc1 (centres unmarked) [Sulindac sulfoxide, Sulindac]?
**A.** IC50 [1, 12]: 450 µM; IC50 ([1]; read-out: cytotoxity IC50 values (50% inhibitory concentration), human colon tumor cells, in vitro): 479 µM; maximum tolerated dose ([2]; mice, once a day dosing schedule): ~50 mg/kg

**Q.** With CC1=C(CC(=O)NCCN2CCCC2)c2cc(F)ccc2C1=Cc1ccc([S+](C)[O-])cc1 (centres unmarked) [SRI 21169, 5-Fluoro-2-methyl-1-[[4-(methylsulfinyl)phenyl]methylene]-N-[2-(1-pyrrolidinyl)ethyl]-1H-indene-3-acetamide] as the compound, how does the IC50 [1, 10] read?
**A.** 17.2 µM

**Q.** With CC1=C(CC(=O)NCc2ccc(N(C)C)cc2)c2cc(F)ccc2C1=Cc1ccc([S+](C)[O-])cc1 (centres unmarked) [SRI 21275, N-[[4-(Dimethylamino)phenyl]methyl]-5-fluoro-2-methyl-1-[[4-(methylsulfinyl)phenyl]methylene]-1H-indene-3-acetamide] as the compound, how does the IC50 [1, 10] read?
**A.** 6.3 µM

**Q.** For CC1=C(CC(=O)NCCc2c[nH]cn2)c2cc(F)ccc2C1=Cc1ccc([S+](C)[O-])cc1 (centres unmarked) [SRI 21229], which IC50 [1, 12] is on record?
**A.** 32.6 µM

**Q.** With CC1=C(CC(=O)NCCN2CCNCC2)c2cc(F)ccc2C1=Cc1ccc([S+](C)[O-])cc1 (centres unmarked) [SRI 21113, 5-Fluoro-2-methyl-1-[[4-(methylsulfinyl)phenyl]methylene]-N-[2-(1-piperazinyl)ethyl]-1H-indene-3-acetamide] as the compound, how does the IC50 [1, 10] read?
**A.** 76.9 µM

**Q.** For CC1=C(CC(=O)NCCN(C)C)c2cc(F)ccc2C1=Cc1ccc([S+](C)[O-])cc1 (centres unmarked) [SRI 21004, N-[2-(Dimethylamino)ethyl]-5-fluoro-2-methyl-1-[[4-(methylsulfinyl)phenyl]methylene]-1H-indene-3-acetamide], which IC50 [1, 10] is on record?
**A.** 25.1 µM

**Q.** What about the IC50 [1, 11] of the same compound?
**A.** 29.2 µM

**Q.** And the “cytotoxic activity (reduce cell number below the number when treatment was initiated)” value [3]?
**A.** greater potential for chemotherapeutic efficacy compared with sulindac sulfide

**Q.** Which IC50 [1, 10] does the source give for CC1=C(CC(=O)NCCc2cccnc2)c2cc(F)ccc2C1=Cc1ccc([S+](C)[O-])cc1 (centres unmarked) [SRI 21162, 5-Fluoro-2-methyl-1-[[4-(methylsulfinyl)phenyl]methylene]-N-[2-(3-pyridinyl)ethyl]-1H-indene-3-acetamide] here?
**A.** 99.8 µM

**Q.** Which IC50 [1, 10] does the source give for CC1=C(CC(=O)NCCN2CCCCC2)c2cc(F)ccc2C1=Cc1ccc([S+](C)[O-])cc1 (centres unmarked) [SRI 21114, 5-Fluoro-2-methyl-1-[[4-(methylsulfinyl)phenyl]methylene]-N-[2-(1-piperidinyl)ethyl]-1H-indene-3-acetamide] here?
**A.** 19.7 µM

**Q.** Which IC50 [4] does the source give for CSc1ccc(/C=C2/C(C)=C(CC(=O)NCCN(C)C)c3cc(F)ccc32)cc1 [SRI 21009, N-[2-(Dimethylamino)ethyl]-5-fluoro-2-methyl-1-[[4-(methylsulfide)phenyl]methylene]-1H-indene-3-acetamide] here?
**A.** 164 µM

**Q.** What about the “sulindac sulfoxide, sulfone, or sulfide detected in the plasma” value ([5]; following SRI 21009 administration) of the same compound?
**A.** Negligible amounts

**Q.** And the achievable plasma levels ([5]; oral administration, single dose of 200 mg/kg)?
**A.** exceeded the IC50 value for in vitro growth inhibition

**Q.** And the IC50 [6]?
**A.** 1480 µM

**Q.** And the “growth inhibitory activity across tumor cell types” value [7]?
**A.** enhanced sensitivity of tumor cells derived from colorectal tumors compared with other tumor types

**Q.** What about the antitumor activity [8] of the same compound?
**A.** as effective as sulindac at 50 mg/kg

**Q.** What about the IC50 [1, 10] of the same compound?
**A.** 1.47 µM

**Q.** What about the IC50 [1, 11] of the same compound?
**A.** 1.47 µM

**Q.** What about the MTD ([2]; mouse, in vivo) of the same compound?
**A.** ~300 mg/kg

**Q.** For CCN(CC)CCNC(=O)CC1=C(C)C(=Cc2ccc([S+](C)[O-])cc2)c2ccc(F)cc21 (centres unmarked) [SRI 21276], which IC50 [1, 12] is on record?
**A.** 18.2 µM
